One assay deals with T1, HLA-DR1 (DRB1*01:01) (Homo sapiens, UniProt P01903+P01911, A100R/D57E/F55L/F60I/F76Y/I96L/L162R/M171V/P40L/Q125E/R42F/V115G/Y59C).
T1 construct: a new stop codon was inserted immediately prior to the transmembrane domain; made in house; host or cells: Drosophila S2 cells, vector pRmHA-3, secreted, purified on an L227 antibody column
In words: Competitive peptide binding assay to soluble HLA-DR1. The settings on record: competition with 0.5 nM biotinylated CII(257–274), 10 nM soluble DR1, 18 h at 37° C, time resolved fluorescence; duplicate, representative of 3 experiments. From the text:
(§1) Soluble DR1 and DR4 were purified from culture supernatants of S2 drosophila cells transfected with DRB1*0101 or DRB1*0401 and DRA1*0101 as described previously. The cytoplasmic and transmembrane portions of these molecules were deleted from the cDNA using PCR, a new stop codon was inserted immediately prior to the transmembrane domain, and the resulting cDNA was cloned into the drosophila expression vector pRmHA-3. S2 cells were transfected with a 10:10:1 ratio of DRB1:DRA1:pUChsNeo using calcium phosphate precipitation. Soluble DR production was induced by 1 mM CuSO4, and 5 days later the culture supernatant was collected and adjusted to 0.05% octyl glucoside (OcG). Soluble DR was purified by passage of the supernatant over an affinity column coupled with the anti-DR antibody L227. The column was washed with 0.05% OcG and 0.15 M NaCl in phosphate buffer (PB), pH 7.5, followed by 0.05% OcG and 0.5M NaCl in PB, pH 7.5. DR was eluted with 100 mM Tris, 0.5M NaCl, pH 11.2, and the fractions were immediately neutralized with acetic acid. Recovered DR protein was concentrated using an EMD Millipore stirred cell with a YM30 disc membrane (Beverly, MA) and quantitated by OD 280 nm absorption and SDS-PAGE prior to use.
(§2) For binding assays, a 10 nM solution of purified DR1 or DR4 was incubated for 18 h at 37° C with CII(257–274) peptide (0.5 nM) that had been labeled at the NH2 terminus with biotin as previously described. Various concentrations of peptides were added as competitors to the CII peptide binding. Bound peptides were separated from free peptides by immobilizing the DR molecules on microtiter plates coated with the monoclonal antibody L227 and subsequent washing. The antibody was adhered to the plate by an overnight incubation of a 10 μg/ml solution at 4° C. Bound biotinylated peptides were detected by incubation with streptavidin-europium followed by a chelating enhancement solution. Time resolved fluorescence was quantitated using a microplate fluorometer (FluoroMark, Bio-Rad, Hercules, CA), and data are expressed as relative fluorescence units measured. The 50% inhibitory concentration values (IC50) values were calculated from the binding curves and graphed as 1/IC50 to indicate affinity relative to the control peptide. Each binding assay was performed in duplicate, and data are representative of 3 experiments.
(§3) Fig 1 Measurement of peptide binding to DRB1*01:01. 10 nM of soluble DR1 was incubated for 18 h at 37° C with 0.5 nM of biotinylated CII(257–274) peptide and various concentrations of WT and Cit-peptides as competitors. Bound peptides were separated from free peptides by immobilizing the DR molecules with an antibody on microtiter plates. Bound biotinylated peptide was detected by incubation with streptavidin-europium. Time resolved fluorescence was quantitated and data are expressed as relative fluorescence units measured. Each binding assay was performed in duplicate, and data are representative of 3 experiments.

Another assay addresses T2, HLA-DR4 (DRB1*04:01) (Homo sapiens, UniProt P01903+P01911, A100K/A169T/F76Y/I96L/K127E/L162R/M171V/N62H/P40V/Q125Y/R42H/S133A/S149N/S66Y/V115G/V209L/W38E).
T2 construct: a new stop codon was inserted immediately prior to the transmembrane domain; made in house; host or cells: Drosophila S2 cells, vector pRmHA-3, secreted, purified on an L227 antibody column
The experiment in a line: Competitive peptide binding assay to soluble HLA-DR4. The settings on record: for pIC50: competition with 0.5 nM biotinylated CII(257–274), 10 nM soluble DR4, 18 h at 37° C.
Description: as §1, §2
as §3, with “Fig 2” for “Fig 1”, “to DRB1*04:01.” for “to DRB1*01:01.”, “soluble DR4” for “soluble DR1”

Assay [1] concerns lymph node T cells from B6.DR1 mice. In words: Cytokine production by WT or Cit-peptide stimulated T cells (multiplexed bead assay). As to conditions: T cells of mice immunized with the immunogen, calculated from Fig 5; for Cytokine WT/Cit Ratio, TNFα: WT over Cit stimulation, “>” = no TNFα produced by Cit-Ag stimulation; for Cytokine WT/Cit Ratio, IFNγ / Cytokine WT/Cit Ratio, IL-6 / Cytokine WT/Cit Ratio, IL-10 / Cytokine WT/Cit Ratio, IL-17A: WT-stimulated over Cit-stimulated, supernatant 3 days. Type of assay: cell-based, mouse. Also on record: key to Cytokine WT/Cit Ratio, TNFα: “–” values the result of no cytokine detected from the Cit-Ag or both antigens. As to the method:
Cytokines produced by WT and Cit-peptide stimulated T cells were measured using a multiplexed bead assay (BioRad) and analyzed using a BioRad MagPix. B6.DR1 mice were immunized with WT or Cit-peptide, and 10 days later LN cells were recovered and re-stimulated with the corresponding WT peptide or Cit-peptide. Supernatants were collected 3 days after stimulation and assayed for expression of IFNγ, TNFα, IL-10, IL-17A, and IL-6. Standard curves were used to calculate cytokine concentration. Data are representative of two independent experiments and based on duplicate samples.
Fig 5 Cytokine production by T cells stimulated with WT or Cit-peptides. Supernatants from T cell proliferation assays in Fig 4 were collected 3 days after antigen stimulation and analyzed for the expression of proinflammatory cytokines. Cytokines produced were measured using a multiplexed bead assay and analyzed using a BioRad MagPix. Standard curves were used to calculate cytokine concentration. The cytokines produced by CII immunized T cells stimulated with the immunodominant epitope, CII(257–274), that drives autoimmune arthritis in the B6.DR1 model are shown for comparison (right panels). Data are representative of two independent experiments and based on duplicate samples.

Assay [2] has as its system B6.DR1 (HLA-DRB1*01:01 transgenic) mice. The experiment in a line: Induction of autoimmune arthritis in HLA-DR1 transgenic mice. The format is in vivo, mouse. As to the method: Citrullinated CII (Cit-CII) was produced using the method described by Lundberg et al. and Burkhardt et al.. 4 ml of CII at 0.25 mg/ml was dialyzed against citrullination buffer (0.1 M Tris-HCl pH 7.6, 10 mM CaCl2, 5 mM DTT), and 6.7 μl (8.5 μg, 33.4 U) of PAD4 (human recombinant, Cayman Chemical) was used to induce citrullination. Sham Cit-CII was produced using the same procedure without the PAD4 enzyme.
For arthritis induction and T cell proliferation assays, 8 to 10 week old mice were immunized subcutaneously at the base of the tail with 100 μg of peptide or bovine CII emulsified in equal volumes of CFA consisting of 85% heavy paraffin oil (Fisher Scientific), 15% mannide mono-oleate (Sigma), and 4 mg/ml of heat killed mycobacterium (H37Ra, Difco). For arthritis studies, mice were examined 3 times per week starting at day 18 after immunization and the presence of arthritis, number of affected limbs, and the severity were assessed. Severity of disease was evaluated by visual inspection and assigned a score using a scale of 0 to 4 based on the degree of inflammation as described.
Fig 8 Induction of autoimmune arthritis in HLA-DR1 mice with WT CII and Cit-CII. B6.DR1 mice were immunized with native CII or Cit-CII and the incidence (panel A) and severity (panels B, C, and D) of arthritis were monitored. […]

The term pIC50 denotes the IC50 on a negative log10 scale, so that one unit is a factor of ten.

pIC50: −log10 of the molar value. Where a SMILES comes first, the peptide text is derived from it. Where no end group is shown, it is not given here. [ ]: non-standard residue; d: D form. Cit = NC(=O)NCCC[C@H](N)C(=O)O Some results are limits rather than exact numbers.

`CC(C)C[C@H](NC(=O)[C@H](CC(C)C)NC(=O)[C@@H](NC(=O)[C@@H](N)C(C)C)C(C)C)C(=O)N[C@H](C(=O)N[C@@H](C)C(=O)N[C@H](C(=O)N[C@@H](CCC(=O)O)C(=O)NCC(=O)N[C@@H](CCCNC(N)=O)C(=O)N[C@H](C(=O)N[C@@H](CCCNC(=N)N)C(=O)N[C@H](C(=O)N[C@@H](CC(N)=O)C(=O)N[C@@H](CO)C(=O)N[C@@H](C)C(=O)N[C@@H](Cc1ccc(O)cc1)C(=O)N[C@@H](CCC(N)=O)C(=O)N[C@@H](CC(=O)O)C(=O)N[C@@H](CCCCN)C(=O)O)C(C)C)C(C)C)[C@@H](C)O)C(C)C` [cit-Agg] (H-VVLLVATEG[Cit]VRVNSAYQDK-OH): the pIC50 was 7.08 at HLA-DR1 (DRB1*01:01) and below 5.30 at HLA-DR4 (DRB1*04:01).
The like results for `CSCC[C@H](NC(=O)[C@H](Cc1ccc(O)cc1)NC(=O)[C@H](CCC(N)=O)NC(=O)[C@@H](N)CC(C)C)C(=O)N[C@@H](CCCNC(N)=O)C(=O)N[C@@H](C)C(=O)N[C@@H](CC(=O)O)C(=O)N[C@@H](CCC(N)=O)C(=O)N[C@@H](C)C(=O)N[C@@H](C)C(=O)NCC(=O)NCC(=O)N[C@@H](CC(C)C)C(=O)N[C@@H](CCCNC(=N)N)C(=O)O` [cit-CII] (H-LQYM[Cit]ADQAAGGLR-OH) were, in that order, 6.92 and 6.77.
Compound `CC[C@H](C)[C@H](NC(=O)[C@H](CCCNC(N)=O)NC(=O)[C@H](CC(N)=O)NC(=O)[C@@H](NC(=O)[C@H](Cc1ccccc1)NC(=O)[C@H](CC(=O)O)NC(=O)[C@H](CCC(N)=O)NC(=O)[C@@H](N)CC(N)=O)[C@@H](C)O)C(=O)N[C@@H](CC(N)=O)C(=O)N[C@@H](CCCCN)C(=O)N[C@@H](CC(C)C)C(=O)N[C@@H](CCCCN)C(=O)N[C@@H](CC(N)=O)C(=O)N[C@@H](CO)C(=O)O` [cit-Fib] (H-NQDFTN[Cit]INKLKNS-OH; N-terminus and C-terminus assumed) gave a pIC50 on HLA-DR1 (DRB1*01:01) below 5.35. Besides, in assay [1], the “Cytokine WT/Cit Ratio, TNFα” value is “–”; the “Cytokine WT/Cit Ratio, IFNγ” value is reported as 0.2; the “Cytokine WT/Cit Ratio, IL-6” value is listed as 0.9; the “Cytokine WT/Cit Ratio, IL-10” value is 0.3. Moreover, in assay [1], the “Cytokine WT/Cit Ratio, IL-17A” value is 1.0.
`CC(C)C[C@H](NC(=O)[C@H](CCCNC(=N)N)NC(=O)[C@@H](NC(=O)[C@H](C)NC(=O)[C@@H](N)CO)C(C)C)C(=O)N[C@@H](CCCNC(N)=O)C(=O)N[C@@H](CO)C(=O)N[C@@H](CO)C(=O)N[C@H](C(=O)N1CCC[C@H]1C(=O)NCC(=O)N[C@H](C(=O)N[C@@H](CCCNC(=N)N)C(=O)O)C(C)C)C(C)C` [cit-Vim] (H-SAVRL[Cit]SSVPGVR-OH): at HLA-DR1 (DRB1*01:01), the pIC50 is 8.96.
Take LQYMRADQAAGGLR [CII]: the pIC50 at HLA-DR1 (DRB1*01:01) was 7.08; on HLA-DR4 (DRB1*04:01) it was 7.43.
On HLA-DR1 (DRB1*01:01), NQDFTNRINKLKNS [Fib] had a pIC50 below 5.35. Also, the “binding to DR4 (in words)” value on HLA-DR4 (DRB1*04:01) (up to 40,000:1 nM ratio of competitor:indicator peptide) is “essentially undetectable”. In addition, in assay [1], the “Cytokine WT/Cit Ratio, TNFα” value is reported as 1.3; the “Cytokine WT/Cit Ratio, IFNγ” value is on record as 2.5; the “Cytokine WT/Cit Ratio, IL-6” value is on record as 1.1; the “Cytokine WT/Cit Ratio, IL-10” value is on record as 1.0. The “Cytokine WT/Cit Ratio, IL-17A” value in assay [1] is reported as 1.4.
As for SAVRLRSSVPGVR [Vim], the pIC50 at HLA-DR1 (DRB1*01:01) was 7.12.
Regarding VVLLVATEGRVRVNSAYQDK [Agg], the values for the pIC50 at HLA-DR1 (DRB1*01:01) and at HLA-DR4 (DRB1*04:01) were 6.96 and below 5.30, respectively.
As to “citrullinated CII: native bovine type II collagen protein treated with PAD4 to convert Arg to Cit”, the “induction of autoimmune arthritis” value in assay [2] (DR1 Tg mice immunized with 100 μg in CFA) is listed as “induced autoimmune arthritis”. For the same compound, in assay [2] (DR1 Tg mice, incidence, onset and severity score 0 to 4), the “severity of arthritis compared with WT CII” value is “no evidence that the disease was more severe than immunization with WT CII”.

(Values after paper PMC7815092, “The role of posttranslational modifications in generating neo-epitopes that bind to rheumatoid arthritis-associated HLA-DR alleles and promote autoimmune T cell responses” (PLoS ONE, 2021).)
